According to PubChem BioAssay (NCI):
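48-hour exposure; five concentrations; linearly interpolated endpoints. TGI is the concentration that stops growth completely.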

Experiments:
Assay in all cases: DTP human tumour cell line panel, 48 h
[1] = test system: HCC-2998 colon
[2] = test system: SK-MEL-2 melanoma
[3] = test system: OVCAR-4 ovarian
[4] = test system: OVCAR-5 ovarian
[5] = test system: NCI-H23 lung
[6] = test system: T-47D breast
[7] = test system: TK-10 renal
[8] = test system: MDA-MB-231 breast
[9] = test system: SF-295 CNS
[10] = test system: HCT-15 colon
[11] = test system: IGROV1 ovarian
[12] = test system: NCI-H522 lung
[13] = test system: SF-539 CNS
[14] = test system: SK-MEL-28 melanoma
[15] = test system: M14 melanoma
[16] = test system: HS 578T breast
[17] = test system: U251 CNS
[18] = test system: CAKI-1 renal
[19] = test system: SR leukemia
[20] = test system: RPMI-8226 leukemia
[21] = test system: UACC-62 melanoma
[22] = test system: LOX IMVI melanoma
[23] = test system: A549 NSCLC
[24] = test system: NCI/ADR-RES ovarian
[25] = test system: HOP-92 NSCLC
[26] = test system: HT29 colon
[27] = test system: SK-OV-3 ovarian
[28] = test system: SN12C renal
[29] = test system: MALME-3M melanoma
[30] = test system: UACC-257 melanoma
[31] = test system: SK-MEL-5 melanoma
[32] = test system: SF-268 CNS
[33] = test system: DU-145 prostate
[34] = test system: NCI-H460 lung
[35] = test system: BT-549 breast
[36] = test system: MDA-MB-435
[37] = test system: HL-60(TB) leukemia
[38] = test system: MOLT-4 leukemia
[39] = test system: EKVX NSCLC
[40] = test system: COLO 205 colon
[41] = test system: PC-3 prostate
[42] = test system: MDA-N
[43] = test system: 786-0 renal
[44] = test system: NCI-H226 lung
[45] = test system: SNB-75 CNS
[46] = test system: MCF7 breast
[47] = test system: ACHN renal
[48] = test system: CCRF-CEM leukemia
[49] = test system: HCT-116 colon
[50] = test system: SW-620 colon
[51] = test system: UO-31 renal
[52] = test system: SNB-19 CNS
[53] = test system: OVCAR-3 ovarian
[54] = test system: OVCAR-8 ovarian
[55] = test system: KM12 colon
[56] = test system: HOP-62 NSCLC
[57] = test system: RXF 393 renal

O=C1c2cc([N+](=O)[O-])cnc2S(=O)(=O)N1c1ccc(Br)cc1
TGI [1]: > 100 µM
TGI [2]: > 100 µM
TGI [3]: > 100 µM
TGI [4]: > 100 µM
TGI [5]: > 100 µM
TGI [6]: > 100 µM
TGI [7]: > 100 µM
TGI [8]: > 100 µM
TGI [9]: > 100 µM
TGI [10]: > 100 µM
TGI [11]: > 100 µM
TGI [12]: > 100 µM
TGI [13]: > 100 µM
TGI [14]: > 100 µM
TGI [15]: > 100 µM
TGI [16]: > 100 µM
TGI [17]: > 100 µM
TGI [18]: > 100 µM
TGI [19]: > 100 µM
TGI [20]: > 100 µM
TGI [21]: > 100 µM
TGI [22]: > 100 µM
TGI [23]: > 100 µM
TGI [24]: > 100 µM
TGI [25]: > 100 µM
TGI [26]: > 100 µM
TGI [27]: > 100 µM
TGI [28]: > 100 µM
TGI [29]: > 100 µM
TGI [30]: > 100 µM
TGI [31]: > 100 µM
TGI [32]: > 100 µM
TGI [33]: > 100 µM
TGI [34]: > 100 µM
TGI [35]: > 100 µM
TGI [36]: > 100 µM
TGI [37]: > 100 µM
TGI [38]: > 100 µM
TGI [39]: > 100 µM
TGI [40]: > 100 µM
TGI [41]: > 100 µM
TGI [42]: > 100 µM
TGI [43]: > 100 µM
TGI [44]: > 100 µM
TGI [45]: > 100 µM
TGI [46]: > 100 µM
TGI [47]: > 100 µM
TGI [48]: > 100 µM
TGI [49]: > 100 µM
TGI [50]: > 100 µM
TGI [51]: > 100 µM
TGI [52]: > 100 µM
TGI [53]: > 100 µM
TGI [54]: > 100 µM
TGI [55]: > 100 µM
TGI [56]: > 100 µM

CC(C)=NNc1cnnc2ccc([N+](=O)[O-])cc12
TGI [2]: > 100 µM
TGI [4]: > 100 µM
TGI [5]: > 100 µM
TGI [6]: > 100 µM
TGI [8]: > 100 µM
TGI [9]: > 100 µM
TGI [10]: > 100 µM
TGI [11]: > 100 µM
TGI [12]: 52 µM
TGI [13]: > 100 µM
TGI [15]: > 100 µM
TGI [16]: > 100 µM
TGI [17]: > 100 µM
TGI [18]: > 100 µM
TGI [19]: > 100 µM
TGI [20]: > 100 µM
TGI [23]: > 100 µM
TGI [24]: > 100 µM
TGI [25]: > 100 µM
TGI [26]: > 100 µM
TGI [27]: > 100 µM
TGI [28]: > 100 µM
TGI [29]: > 100 µM
TGI [30]: > 100 µM
TGI [31]: > 100 µM
TGI [32]: > 100 µM
TGI [33]: > 100 µM
TGI [34]: > 100 µM
TGI [35]: > 100 µM
TGI [36]: > 100 µM
TGI [37]: 43.2 µM
TGI [38]: > 100 µM
TGI [39]: > 100 µM
TGI [57]: > 100 µM
TGI [40]: > 100 µM
TGI [41]: > 100 µM
TGI [42]: > 100 µM
TGI [43]: > 100 µM
TGI [44]: > 100 µM
TGI [45]: > 100 µM
TGI [46]: > 100 µM
TGI [47]: > 100 µM
TGI [48]: > 100 µM
TGI [49]: > 100 µM
TGI [50]: > 100 µM
TGI [51]: > 100 µM
TGI [52]: > 100 µM
TGI [54]: > 100 µM
TGI [55]: > 100 µM
